# From patent US20250296953A1, “3,4-THIAZOLO-STEROIDS AND METHODS OF MAKING AND USING THE SAME” (Arkansas State University - Jonesboro, priority 2018, published 2025)
# Where two headings read alike, the source gives them in different places.
# How the values were obtained:
# NCI-H522 (NSCLC) = experiment: NCI 60 one dose screen; format: cell-based, human; conditions: Non-small Cell Lung Cancer
# [1] = test system: 60 different human tumor cell lines; experiment: NCI Development Therapeutics Program 60 cell line screen, one dose; format: cell-based
# [2] = test system: 60 different human tumor cell lines; experiment: cells
# glioblastoma (SF-295) = experiment: NCI 60 five dose screen
# RPMI-8226 = experiment: NCI 60 five dose screen
smiles,measurement,setting,value
"C[C@]12CCc3sc(Nc4cccc(O)c4)nc3C1=CC[C@@H]1[C@@H]2CC[C@]2(C)C(=O)CC[C@@H]12 [IIa.17, (1S,2R,13R,14S,18S)-7-(3-hydroxyanilino)-2,18-dimethyl-6-thia-8-azapentacyclo[11.7.0.02,10.05,9.014,18]icosa-5(9),7,10-trien-17-one]",Growth Percent,NCI-H522 (NSCLC),−56.41%
same,Growth Percent,"[1]; Breast Cancer, BT-549",17.42%
same,Growth Percent,"[1]; Breast Cancer, HS 578T",7.41%
same,Growth Percent,"[1]; Breast Cancer, MCF7",−25.89%
same,Growth Percent,"[1]; Breast Cancer, MDA-MB-231/ATCC",39.51%
same,Growth Percent,"[1]; Breast Cancer, MDA-MB-468",32.20%
same,Growth Percent,"[1]; Breast Cancer, T-47D",−8.55%
same,Growth Percent,"[1]; CNS Cancer, SF-268",43.09%
same,Growth Percent,"[1]; CNS Cancer, SNB-19",57.90%
same,Growth Percent,"[1]; CNS Cancer, SNB-75",37.28%
same,Growth Percent,"[1]; CNS Cancer, U251",18.85%
same,Growth Percent,"[1]; Colon Cancer, COLO 205",34.38%
same,Growth Percent,"[1]; Colon Cancer, HCC-2998",81.46%
same,Growth Percent,"[1]; Colon Cancer, HCT-116",−23.66%
same,Growth Percent,"[1]; Colon Cancer, HT29",−29.01%
same,Growth Percent,"[1]; Colon Cancer, KM12",34.70%
same,Growth Percent,"[1]; Colon Cancer, SW-620",−4.13%
same,Growth Percent,"[1]; Leukemia, CCRF-CEM",12.99%
same,Growth Percent,"[1]; Leukemia, HL-60(TB)",45.99%
same,Growth Percent,"[1]; Leukemia, K-562",4.81%
same,Growth Percent,"[1]; Leukemia, MOLT-4",5.52%
same,Growth Percent,"[1]; Leukemia, RPMI-8226",−13.60%
same,Growth Percent,"[1]; Leukemia, SR",3.61%
same,Growth Percent,"[1]; Melanoma, LOX IMVI",−52.69%
same,Growth Percent,"[1]; Melanoma, M14",54.77%
same,Growth Percent,"[1]; Melanoma, MALME-3M",35.26%
same,Growth Percent,"[1]; Melanoma, MDA-MB-435",42.59%
same,Growth Percent,"[1]; Melanoma, SK-MEL-2",29.07%
same,Growth Percent,"[1]; Melanoma, SK-MEL-5",64.76%
same,Growth Percent,"[1]; Melanoma, SK-MEL-28",41.25%
same,Growth Percent,"[1]; Melanoma, UACC-62",28.83%
same,Growth Percent,"[1]; Melanoma, UACC-257",79.56%
same,Growth Percent,"[1]; Non-small Cell Lung Cancer, A549/ATCC",55.43%
same,Growth Percent,"[1]; Non-small Cell Lung Cancer, EKVX",71.36%
same,Growth Percent,"[1]; Non-small Cell Lung Cancer, HOP-62",27.50%
same,Growth Percent,"[1]; Non-small Cell Lung Cancer, HOP-92",64.31%
same,Growth Percent,"[1]; Non-small Cell Lung Cancer, NCI-H23",63.65%
same,Growth Percent,"[1]; Non-small Cell Lung Cancer, NCI-H226",94.46%
same,Growth Percent,"[1]; Non-small Cell Lung Cancer, NCI-H322M",72.84%
same,Growth Percent,"[1]; Non-small Cell Lung Cancer, NCI-H460",43.90%
same,Growth Percent,"[1]; Ovarian Cancer, IGROV1",−12.12%
same,Growth Percent,"[1]; Ovarian Cancer, NCI/ADR-RES",78.93%
same,Growth Percent,"[1]; Ovarian Cancer, OVCAR-3",−3.79%
same,Growth Percent,"[1]; Ovarian Cancer, OVCAR-4",52.06%
same,Growth Percent,"[1]; Ovarian Cancer, OVCAR-5",109.51%
same,Growth Percent,"[1]; Ovarian Cancer, OVCAR-8",17.89%
same,Growth Percent,"[1]; Ovarian Cancer, SK-OV-3",37.28%
same,Growth Percent,"[1]; Prostate Cancer, DU-145",12.72%
same,Growth Percent,"[1]; Prostate Cancer, PC-3",28.08%
same,Growth Percent,"[1]; Renal Cancer, 786-0",−0.52%
same,Growth Percent,"[1]; Renal Cancer, ACHN",5.12%
same,Growth Percent,"[1]; Renal Cancer, CAKI-1",37.11%
same,Growth Percent,"[1]; Renal Cancer, RXF 393",−6.67%
same,Growth Percent,"[1]; Renal Cancer, SN12C",46.55%
same,Growth Percent,"[1]; Renal Cancer, TK-10",10.18%
same,Growth Percent,"[1]; Renal Cancer, UO-31",22.19%
same,GI50,[2]; 60 cell,5.52 µM
same,CC50,"[2]; 60 cell, read-out: LC50",> 100 µM
same,GI50,[2]; 786-0,3.02 µM
same,CC50,"[2]; 786-0, read-out: LC50",> 100 µM
same,GI50,[2]; A498,28.8 µM
same,CC50,"[2]; A498, read-out: LC50",> 100 µM
same,GI50,[2]; A549,26.4 µM
same,CC50,"[2]; A549, read-out: LC50",> 100 µM
same,GI50,[2]; ACHN,7.81 µM
same,CC50,"[2]; ACHN, read-out: LC50",> 100 µM
same,GI50,[2]; BT-549,4.58 µM
same,CC50,"[2]; BT-549, read-out: LC50",> 100 µM
same,GI50,[2]; CAKI-1,13 µM
same,CC50,"[2]; CAKI-1, read-out: LC50",70 µM
same,GI50,[2]; CCRF-CEM,2.84 µM
same,CC50,"[2]; CCRF-CEM, read-out: LC50",> 100 µM
same,GI50,[2]; COLO 205,12.3 µM
same,CC50,"[2]; COLO 205, read-out: LC50",> 100 µM
same,GI50,[2]; DU-145,4.34 µM
same,CC50,"[2]; DU-145, read-out: LC50",> 100 µM
same,GI50,[2]; EKVX,28.8 µM
same,CC50,"[2]; EKVX, read-out: LC50",> 100 µM
same,GI50,[2]; HCC 2998,18.2 µM
same,CC50,"[2]; HCC 2998, read-out: LC50",> 100 µM
same,GI50,[2]; HCT-15,2.53 µM
same,CC50,"[2]; HCT-15, read-out: LC50",> 100 µM
same,GI50,[2]; HCT-116,1.91 µM
same,CC50,"[2]; HCT-116, read-out: LC50",9.09 µM
same,GI50,[2]; HOP-62,22.4 µM
same,CC50,"[2]; HOP-62, read-out: LC50",> 100 µM
same,GI50,[2]; HOP-92,18.7 µM
same,GI50,[2]; HT-29,3.9 µM
same,CC50,"[2]; HT-29, read-out: LC50",75.2 µM
same,GI50,[2]; Hs-578T,12 µM
same,CC50,"[2]; Hs-578T, read-out: LC50",> 100 µM
same,GI50,[2]; IGROV-1,8.21 µM
same,CC50,"[2]; IGROV-1, read-out: LC50",> 100 µM
same,GI50,[2]; K562,2.79 µM
same,CC50,"[2]; K562, read-out: LC50",> 100 µM
same,GI50,[2]; KM12,8.27 µM
same,CC50,"[2]; KM12, read-out: LC50",94.7 µM
same,GI50,[2]; LOX IMVI,3.22 µM
same,CC50,"[2]; LOX IMVI, read-out: LC50",48.1 µM
same,GI50,[2]; M14,7.88 µM
same,CC50,"[2]; M14, read-out: LC50",> 100 µM
same,GI50,[2]; MCF7,3.85 µM
same,CC50,"[2]; MCF7, read-out: LC50",> 100 µM
same,GI50,[2]; MDA-MB-231,13.4 µM
same,CC50,"[2]; MDA-MB-231, read-out: LC50",> 100 µM
same,GI50,[2]; MDA-MB-435,3.49 µM
same,CC50,"[2]; MDA-MB-435, read-out: LC50",> 100 µM
same,GI50,[2]; MDA-MB-468,3.59 µM
same,CC50,"[2]; MDA-MB-468, read-out: LC50",54.7 µM
same,GI50,[2]; MOLT-4,2.84 µM
same,CC50,"[2]; MOLT-4, read-out: LC50",≥ 100 µM
same,GI50,[2]; Malme-3M,21.2 µM
same,CC50,"[2]; Malme-3M, read-out: LC50",> 100 µM
same,GI50,[2]; NCI-H23,18.1 µM
same,CC50,"[2]; NCI-H23, read-out: LC50",> 100 µM
same,GI50,[2]; NCI-H226,7.36 µM
same,CC50,"[2]; NCI-H226, read-out: LC50",> 100 µM
same,GI50,[2]; NCI-H322M,50.5 µM
same,CC50,"[2]; NCI-H322M, read-out: LC50",> 100 µM
same,GI50,[2]; NCI-H460,4.65 µM
same,CC50,"[2]; NCI-H460, read-out: LC50",> 100 µM
same,GI50,[2]; NCI-H522,6.6 µM
same,CC50,"[2]; NCI-H522, read-out: LC50",69.3 µM
same,GI50,[2]; NCI/ADR-RES,6.34 µM
same,CC50,"[2]; NCI/ADR-RES, read-out: LC50",> 100 µM
same,GI50,[2]; OVCAR-3,4.41 µM
same,CC50,"[2]; OVCAR-3, read-out: LC50",> 100 µM
same,GI50,[2]; OVCAR-4,18.9 µM
same,CC50,"[2]; OVCAR-4, read-out: LC50",> 100 µM
same,GI50,[2]; OVCAR-5,24.5 µM
same,CC50,"[2]; OVCAR-5, read-out: LC50",> 100 µM
same,GI50,[2]; OVCAR-8,7.61 µM
same,CC50,"[2]; OVCAR-8, read-out: LC50",> 100 µM
same,GI50,[2]; RXF 393,3.18 µM
same,CC50,"[2]; RXF 393, read-out: LC50",48.9 µM
same,GI50,[2]; SF-268,5.95 µM
same,CC50,"[2]; SF-268, read-out: LC50",> 100 µM
same,GI50,[2]; SK-MEL-2,17.1 µM
same,CC50,"[2]; SK-MEL-2, read-out: LC50",> 100 µM
same,GI50,[2]; SK-MEL-5,10.2 µM
same,CC50,"[2]; SK-MEL-5, read-out: LC50",62.5 µM
same,GI50,[2]; SK-MEL-28,20.5 µM
same,CC50,"[2]; SK-MEL-28, read-out: LC50",> 100 µM
same,GI50,[2]; SK-OV-3,34 µM
same,CC50,"[2]; SK-OV-3, read-out: LC50",> 100 µM
same,GI50,[2]; SN12C,3.81 µM
same,CC50,"[2]; SN12C, read-out: LC50",> 100 µM
same,GI50,[2]; SNB-19,12.9 µM
same,CC50,"[2]; SNB-19, read-out: LC50",> 100 µM
same,GI50,[2]; SNB-75,5.4 µM
same,CC50,"[2]; SNB-75, read-out: LC50",> 100 µM
same,GI50,[2]; SW-620,3.38 µM
same,CC50,"[2]; SW-620, read-out: LC50",> 100 µM
same,GI50,[2]; T47D,3.5 µM
same,CC50,"[2]; T47D, read-out: LC50",> 100 µM
same,GI50,[2]; TK-10,7.47 µM
same,CC50,"[2]; TK-10, read-out: LC50",> 100 µM
same,GI50,[2]; U-251,4.41 µM
same,CC50,"[2]; U-251, read-out: LC50",58.6 µM
same,GI50,[2]; UACC-62,9.54 µM
same,CC50,"[2]; UACC-62, read-out: LC50",89.7 µM
same,GI50,[2]; UACC-257,23.8 µM
same,CC50,"[2]; UACC-257, read-out: LC50",> 100 µM
same,GI50,[2]; UO-31,5.26 µM
same,CC50,"[2]; UO-31, read-out: LC50",49.9 µM
same,GI50,"glioblastoma (SF-295); Homo sapiens, SF-295",8.98 µM
same,CC50,"glioblastoma (SF-295); Homo sapiens, SF-295, read-out: LC50",> 100 µM
same,TGI,"glioblastoma (SF-295); SF-295 (CNS Cancer), five dose",>1.00E−4
same,GI50,"RPMI-8226; Homo sapiens, RPMI-8226",2.73 µM
same,CC50,"RPMI-8226; Homo sapiens, RPMI-8226, read-out: LC50",> 100 µM
same,TGI,"RPMI-8226; RPMI-8226 (Leukemia), five dose",7.44E−6
